Assay results as given in patent publication US7109193B2, “Tricyclic diazepines tocolytic oxytocin receptor antagonists” (Wyeth, priority 2001, dated 2006).

Target: T1, human vasopressin V1a receptor subtype (Homo sapiens, UniProt P37288)
T1 construct: host or cells: CHO cells (pZeoSV vector for the Thibonnier line)
Assay: Vasopressin binding in Chinese Hamster Ovary cell membranes expressing human vasopressin V1a subtype receptors
Settings: 100 nM, CHO cell membranes, [3H]Manning ligand, values without parentheses
Method in brief: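 Membranes from CHO cells expressing human V1a receptor were incubated with [3H]Manning ligand (added as 20 μL of 8 nM) in pH 7.4 Tris buffer with MgCl2, BSA and protease inhibitors, 60 min at room temperature. Bound radioactivity was counted after filtration; values are percent inhibition at a stated concentration or IC50.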

T1 sequence (P37288 whole entry): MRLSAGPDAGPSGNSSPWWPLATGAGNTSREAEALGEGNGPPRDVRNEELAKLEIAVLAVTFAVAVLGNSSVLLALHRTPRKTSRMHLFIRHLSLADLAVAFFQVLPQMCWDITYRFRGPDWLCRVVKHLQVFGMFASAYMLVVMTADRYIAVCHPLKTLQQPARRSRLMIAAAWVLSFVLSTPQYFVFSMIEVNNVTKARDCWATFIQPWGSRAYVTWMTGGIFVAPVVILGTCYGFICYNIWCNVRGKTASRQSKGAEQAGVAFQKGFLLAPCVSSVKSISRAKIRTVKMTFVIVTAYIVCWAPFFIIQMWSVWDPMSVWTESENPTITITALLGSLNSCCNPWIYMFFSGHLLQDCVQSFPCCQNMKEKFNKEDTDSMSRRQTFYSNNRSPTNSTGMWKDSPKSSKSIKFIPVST

COc1ccccc1-c1ccc(C(=O)N2Cc3ccc(C(=O)N[C@@H](Cc4c[nH]cn4)C(N)=O)n3Cc3ccccc32)cc1C [Example 288, N-[(1S)-2-Amino-1-(1H-imidazol-4-ylmethyl)-2-oxoethyl]-10-[(2′-methoxy-2-methyl[1,1′-biphenyl]4-yl)carbonyl]-10,11-dihydro-5H-pyrrolo[2,1-c][1,4]benzodiazepine-3-carboxamide]
inhibition at 0.1 µM: 24%

COc1cc(-c2ccccc2C)c(Cl)cc1C(=O)N1Cc2ccc(C(=O)N[C@@H]3CN4CCC3CC4)n2Cc2ccccc21 [Example 297, N-[(3S)-1-Azabicyclo[2.2.2]oct-3-yl]-10-[(6-chloro-3-methoxy-2′-methyl-[1,1′-biphenyl]-4-yl)carbonyl]-10,11-dihydro-5H-pyrrolo[2,1-c][1,4]benzodiazepine-3-carboxamide]
inhibition at 0.1 µM: -2%

COc1cc(C(=O)N2Cc3cccn3Cc3ccccc32)ccc1-c1ccccc1C(F)(F)F [Example 19D, (10,11-Dihydro-5H-pyrrolo[2,1-c][1,4]benzodiazepin-10-yl)-(2-methoxy-2′-trifluoromethyl-[1,1′-biphenyl]-4-yl)-methanone]
inhibition at 0.1 µM: 51%

Cc1cc(C(=O)N2Cc3ccc(C(=O)N[C@@H](Cc4c[nH]cn4)C(N)=O)n3Cc3ccccc32)ccc1-c1ccccc1C(F)(F)F [Example 284, N-[(1S)-2-Amino-1-(1H-imidazol-4-ylmethyl)-2-oxoethyl]-10-{[2-methyl-2′-(trifluoromethyl)[1,1′-biphenyl]-4-yl]carbonyl}-10,11-dihydro-5H-pyrrolo[2,1-c][1,4]benzodiazepine-3-carboxamide]
inhibition at 0.1 µM: 0%

COc1ccccc1-c1ccc(C(=O)N2Cc3ccc(C(=O)N4CCN(C)CC4)n3Cc3ccccc32)cc1C [Example 49, {10-[(2′-Methoxy-2-methyl[1,1′-biphenyl]-4-yl)carbonyl]-10,11-dihydro-5H-pyrrolo[2,1-c][1,4]benzodiazepin-3-yl}(4-methyl-1-piperazinyl)methanone]
inhibition at 0.1 µM: 5%

COc1cc(-c2ccccc2C)c(Cl)cc1C(=O)N1Cc2ccc(C(=O)N[C@@H](CCCCNC(=O)OC(C)(C)C)C(N)=O)n2Cc2ccccc21 [Example 304, tert-Butyl (5S)-6-amino-5-[({10-[(6-chloro-3-methoxy-2′-methyl[1,1′-biphenyl]-4-yl)carbonyl]-10,11-dihydro-5H-pyrrolo[2,1-c][1,4]benzodiazepin-3-yl}carbonyl)amino]-6-oxohexylcarbamate]
inhibition at 0.1 µM: -7%

COc1cc(C(=O)N2Cc3ccc(C(=O)N4CCN(CCCN(C)C)CC4)n3Cc3ccccc32)ccc1-c1cccc2ccccc12 [Example 253, {4-[3-(Dimethylamino)propyl]-1-piperazinyl}{10-[3-methoxy-4-(1-naphthyl)benzoyl]-10,11-dihydro-5H-pyrrolo[2,1-c][1,4]benzodiazepin-3-yl}methanone]
inhibition at 0.1 µM: 16%

COc1cccc(-c2ccc(C(=O)N3Cc4ccc(C(=O)N5CCN(CCCN(C)C)CC5)n4Cc4ccccc43)cc2C)c1 [Example 248, {4-[3-(Dimethylamino)propyl]-1-piperazinyl}{10-[(3′-methoxy-2-methyl[1,1′-biphenyl]-4-yl)carbonyl]-10,11-dihydro-5H-pyrrolo[2,1-c][1,4]benzodiazepin-3-yl}methanone]
inhibition at 0.1 µM: 17%

C=CCN1CCN(C(=O)c2ccc3n2Cc2ccccc2N(C(=O)c2ccc(-n4c(C)ccc4C)c(OC)c2)C3)CC1 [Example 318, (4-Allyl-1-piperazinyl){10-[4-(2,5-dimethyl-1H-pyrrol-1-yl)-3-methoxybenzoyl]-10,11-dihydro-5H-pyrrolo[2,1-c][1,4]benzodiazepin-3-yl}methanone]
inhibition at 0.1 µM: 5%

Cc1ccccc1-c1ccc(C(=O)N2Cc3ccc(C(=O)N4CCCN(C)CC4)n3Cc3ccccc32)cc1C [Example 63, {10-[(2,2′-Dimethyl[1,1′-biphenyl]-4-yl)carbonyl]-10,11-dihydro-5H-pyrrolo[2,1-c][1,4]benzodiazepin-3-yl}(4-methyl-1,4-diazepan-1-yl)methanone]
inhibition at 0.1 µM: 57%

Cc1cc(C(=O)N2Cc3ccc(C(=O)N4CCN(CCCN(C)C)CC4)n3Cc3ccccc32)ccc1-c1ccccc1C(F)(F)F [Example 257, {10-[(2-Methyl-2′-trifluoromethyl-[1,1′-biphenyl]-4-yl)carbonyl]-10,11-dihydro-5H-pyrrolo[2,1-c][1,4]benzodiazepin-3-yl}{4-[3-(dimethylamino)propyl]-1-piperazinyl}-methanone]
V1a % inhibition @ 100 nM (0.1 µM): 10%

COc1cccc(-c2cc(OC)c(C(=O)N3Cc4ccc(C(=O)N[C@@H](CCCCNC(=O)OC(C)(C)C)C(N)=O)n4Cc4ccccc43)cc2Cl)c1 [Example 302, tert-Butyl (5S)-6-amino-5-[({10-[(6-chloro-3,3′-dimethoxy[1,1′-biphenyl]-4-yl)carbonyl]-10,11-dihydro-5H-pyrrolo[2,1-c][1,4]benzodiazepin-3-yl}carbonyl)amino]-6-oxohexylcarbamate]
inhibition at 0.1 µM: -15%

COc1cc(C(=O)N2Cc3ccc(C(=O)N4CCN(CCCN(C)C)CC4)n3Cc3ccccc32)ccc1-n1c(C)ccc1C [Example 320, {4-[3-(Dimethylamino)propyl]-1-piperazinyl}{10-[4-(2,5-dimethyl-1H-pyrrol-1-yl)-3-methoxybenzoyl]-10,11-dihydro-5H-pyrrolo[2,1-c][1,4]benzodiazepin-3-yl}methanone]
inhibition at 0.1 µM: 4%

COc1cc(C(=O)N2Cc3ccc(C(=O)N4CCN(C)CC4)n3Cc3ccccc32)ccc1-c1cccc2ccccc12 [Example 55, {10-[3-Methoxy-4-(1-naphthyl)benzoyl]-10,11-dihydro-5H-pyrrolo[2,1-c][1,4]benzodiazepin-3-yl}(4-methyl-1-piperazinyl)methanone]
inhibition at 0.1 µM: 4%

COc1cccc(-c2ccc(C(=O)N3Cc4ccc(C(=O)N5CCN(C)CC5)n4Cc4ccccc43)cc2C)c1 [Example 51, {10-[(3′-Methoxy-2-methyl[1,1′-biphenyl]-4-yl)carbonyl]-10,11-dihydro-5H-pyrrolo[2,1-c][1,4]benzodiazepin-3-yl}(4-methyl-1-piperazinyl)methanone]
inhibition at 0.1 µM: 14%

COc1ccccc1-c1ccc(C(=O)N2Cc3ccc(C(=O)N[C@@H]4CN5CCC4CC5)n3Cc3ccccc32)cc1C [Example 295, N-[(3S)-1-Azabicyclo[2.2.2]oct-3-yl]-10-[(2′-methoxy-2-methyl[1,1′-biphenyl]-4-yl)carbonyl]-10,11-dihydro-5H-pyrrolo[2,1-c][1,4]benzodiazepine-3-carboxamide]
inhibition at 0.1 µM: 6%

COc1cccc(-c2ccc(C(=O)N3Cc4ccc(C(=O)N5CCCN(C)CC5)n4Cc4ccccc43)cc2C)c1 [Example 64, {10-[(3′-Methoxy-2-methyl[1,1′-biphenyl]-4-yl)carbonyl]-10,11-dihydro-5H-pyrrolo[2,1-c][1,4]benzodiazepin-3-yl}(4-methyl-1,4-diazepan-1-yl)methanone]
inhibition at 0.1 µM: 13%

COc1ccccc1-c1ccc(C(=O)N2Cc3ccc(C(=O)N4CCCN(C)CC4)n3Cc3ccccc32)cc1C [Example 62, {10-[(2′-Methoxy-2-methyl[1,1′-biphenyl]-4-yl)carbonyl]-10,11-dihydro-5H-pyrrolo[2,1-c][1,4]benzodiazepin-3-yl}(4-methyl-1,4-diazepan-1-yl)methanone]
inhibition at 0.1 µM: 10%

COc1ccccc1-c1ccc(C(=O)N2Cc3ccc(C(=O)N[C@H]4CN5CCC4CC5)n3Cc3ccccc32)cc1OC [Example 299, N-[(3R)-1-Azabicyclo[2.2.2]oct-3-yl]-10-[(2,2′-dimethoxy[1,1′-biphenyl]-4-yl)carbonyl]-10,11-dihydro-5H-pyrrolo[2,1-c][1,4]benzodiazepine-3-carboxamide]
inhibition at 0.1 µM: 14%

Cc1ccccc1-c1ccc(C(=O)N2Cc3ccc(C(=O)NCCCN(C)C)n3Cc3ccccc32)cc1C [Example 73, N-[3-(Dimethylamino)propyl]-10-[(2,2′-dimethyl[1,1′-biphenyl]-4-yl)carbonyl]-10,11-dihydro-5H-pyrrolo[2,1-c][1,4]benzodiazepine-3-carboxamide]
inhibition at 0.1 µM: 46%

Cc1ccccc1-c1ccc(C(=O)N2Cc3ccc(C(=O)N4CCN(C)CC4)n3Cc3ccccc32)cc1C [Example 50, {10-[(2,2′-Dimethyl[1,1′-biphenyl]-4-yl)carbonyl]-10,11-dihydro-5H-pyrrolo[2,1-c][1,4]benzodiazepin-3-yl}(4-methyl-1-piperazinyl)methanone]
inhibition at 0.1 µM: 40%

COc1cc(C(=O)N2Cc3ccc(C(=O)N4CCN(CCN(C)C)CC4)n3Cc3ccccc32)ccc1-n1c(C)ccc1C [Example 316, {4-[2-(Dimethylamino)ethyl]-1-piperazinyl}{10-[4-(2,5-dimethyl-1H-pyrrol-1-yl)-3-methoxybenzoyl]-10,11-dihydro-5H-pyrrolo[2,1-c][1,4]benzodiazepin-3-yl}methanone]
inhibition at 0.1 µM: 0%

COc1cccc(-c2cc(OC)c(C(=O)N3Cc4ccc(C(=O)N[C@@H](Cc5c[nH]cn5)C(N)=O)n4Cc4ccccc43)cc2Cl)c1 [Example 287, N-[(1S)-2-Amino-1-(1H-imidazol-4-ylmethyl)-2-oxoethyl]-10-[(6-chloro-3,3′-dimethoxy[1,1′-biphenyl]-4-yl)carbonyl]-10,11-dihydro-5H-pyrrolo[2,1-c][1,4]benzodiazepine-3-carboxamide]
inhibition at 0.1 µM: 0%

COc1ccccc1-c1ccc(C(=O)N2Cc3ccc(C(=O)N4CCN(C)CC4)n3Cc3ccccc32)cc1OC [Example 56, {10-[(2,2′-Dimethoxy[1,1′-biphenyl]-4-yl)carbonyl]-10,11-dihydro-5H-pyrrolo[2,1-c][1,4]benzodiazepin-3-yl}(4-methyl-1-piperazinyl)methanone]
inhibition at 0.1 µM: 2%

COc1ccccc1-c1ccc(C(=O)N2Cc3ccc(C(=O)n4ccnc4)n3Cc3ccccc32)cc1C [Example 292, 1H-Imidazol-1-yl-{10-[(2′-methoxy-2-methyl[1,1′-biphenyl]-4-yl)carbonyl]-10,11-dihydro-5H-pyrrolo[2,1-c][1,4]benzodiazepin-3-yl}methanone]
inhibition at 0.1 µM: 6%
